Usually IC50 stands for the concentration that inhibits the measured activity by half.

The structures appear in SMILES notation.

For test [1], the target named is T1, Acetylcholinesterase (Rattus norvegicus, UniProt P37136).
T1 sequence (P37136 whole entry): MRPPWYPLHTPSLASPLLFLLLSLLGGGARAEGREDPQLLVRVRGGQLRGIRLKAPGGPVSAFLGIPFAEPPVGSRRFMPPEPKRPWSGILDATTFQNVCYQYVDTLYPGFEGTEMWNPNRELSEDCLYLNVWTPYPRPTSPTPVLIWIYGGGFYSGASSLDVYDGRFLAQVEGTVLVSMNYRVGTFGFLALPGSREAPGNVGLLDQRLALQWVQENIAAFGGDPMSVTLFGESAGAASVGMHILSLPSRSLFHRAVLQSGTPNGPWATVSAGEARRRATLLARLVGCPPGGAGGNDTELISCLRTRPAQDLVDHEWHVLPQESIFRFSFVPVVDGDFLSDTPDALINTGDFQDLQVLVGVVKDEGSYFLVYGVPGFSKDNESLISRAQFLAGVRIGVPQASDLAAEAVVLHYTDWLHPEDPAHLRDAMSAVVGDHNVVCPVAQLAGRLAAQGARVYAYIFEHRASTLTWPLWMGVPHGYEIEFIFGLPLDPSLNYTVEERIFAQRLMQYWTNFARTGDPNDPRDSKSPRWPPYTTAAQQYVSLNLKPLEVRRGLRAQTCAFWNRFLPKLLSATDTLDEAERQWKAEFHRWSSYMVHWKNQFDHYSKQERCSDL
In words: Inhibition of AChE in rat brain using acetylthiocholine iodide as substrate by Ellman's UV-vis spectrophotometric method. It is filed as tissue-based.

The nature of test [2]: Cytotoxicity against human KB-CCL-17 cells assessed as reduction in cell viability by MTT assay. In kind it is functional, cell-based. (Tetrazolium assays rely on reduction of a dye to a coloured formazan, in cell work by metabolically active cells.)
A further test has as its system HepG2. In words: Cytotoxicity against human HepG2 cells assessed as reduction in cell viability by MTT assay. It is filed as functional, cell-based.
Test [3] can be described thus: Cytotoxicity against human Lu1 cells assessed as reduction in cell viability by MTT assay. In kind it is functional, cell-based.
The target of test [4] is Acetylcholinesterase (Electrophorus electricus, UniProt O42275). In words: Inhibition of electric eel AChE using acetylthiocholine iodide as substrate preincubated with enzyme for 10 mins prior to substrate addition and measured for 6 mins by Ellman's method. For orientation: In Ellman's method for cholinesterases, released thiocholine reacts with DTNB.
Acetylcholinesterase (Electrophorus electricus, UniProt O42275), sequence (O42275 whole entry): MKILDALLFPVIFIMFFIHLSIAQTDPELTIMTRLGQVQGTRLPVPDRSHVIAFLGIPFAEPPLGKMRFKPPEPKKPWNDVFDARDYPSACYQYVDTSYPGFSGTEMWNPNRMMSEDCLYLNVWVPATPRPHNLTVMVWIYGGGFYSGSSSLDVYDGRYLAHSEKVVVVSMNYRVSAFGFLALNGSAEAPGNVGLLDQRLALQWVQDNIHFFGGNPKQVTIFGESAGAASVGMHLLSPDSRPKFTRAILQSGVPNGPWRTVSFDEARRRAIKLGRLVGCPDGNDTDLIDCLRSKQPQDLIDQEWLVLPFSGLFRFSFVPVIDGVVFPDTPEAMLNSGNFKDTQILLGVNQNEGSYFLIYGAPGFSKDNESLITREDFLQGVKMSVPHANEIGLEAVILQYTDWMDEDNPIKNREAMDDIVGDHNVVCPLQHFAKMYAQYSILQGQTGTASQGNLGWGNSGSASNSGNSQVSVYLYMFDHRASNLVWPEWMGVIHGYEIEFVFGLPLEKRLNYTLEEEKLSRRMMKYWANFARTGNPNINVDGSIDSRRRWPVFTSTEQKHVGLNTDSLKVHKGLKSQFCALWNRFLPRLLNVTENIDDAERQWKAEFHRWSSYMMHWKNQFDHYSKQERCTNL

Consider `C#CCOc1ccc2ncnc(NCc3ccccc3)c2c1`, for which the IC50 is 47.7 µM on Acetylcholinesterase [1], 59.7 µM in test [2], above 200 µM with HepG2 and above 200 µM in test [3].
The compound `O=[N+]([O-])c1cccc(Nc2ncnc3ccc(OCc4cn(-c5cccc([N+](=O)[O-])c5)nn4)cc23)c1` had an IC50 at Acetylcholinesterase [1] above 200 µM.
Same read-out and setting: under `O=[N+]([O-])c1ccc(-n2cc(COc3ccc4ncnc(NCc5ccccc5)c4c3)nn2)cc1` stands above 200 µM; under `CN1CCN(c2ncnc3ccc(OCc4cn(-c5ccc([N+](=O)[O-])cc5)nn4)cc23)CC1`, above 200 µM.
With `C#CCOc1ccc2ncnc(N3CCN(C)CC3)c2c1`, the IC50 on Acetylcholinesterase [1] is 83.9 µM; in test [2], above 200 µM; in the test with HepG2, above 200 µM; in test [3] it was above 200 µM.
As to `O=[N+]([O-])c1ccccc1-n1cc(COc2ccc3ncnc(NCc4ccccc4)c3c2)nn1`, the IC50 was 0.23 µM at Acetylcholinesterase [1], 42.7 µM in test [2], above 200 µM in the test with HepG2 and above 200 µM in test [3].
Take `O=[N+]([O-])c1ccc(-n2cc(COc3ccc4ncnc(Nc5cccc([N+](=O)[O-])c5)c4c3)nn2)cc1`: at Acetylcholinesterase [1], the 50% inhibitory concentration (IC50) was above 200 µM.
`O=[N+]([O-])c1cccc(-n2cc(COc3ccc4ncnc(NCc5ccccc5)c4c3)nn2)c1`: the IC50 was 1.1 µM on Acetylcholinesterase [1], above 200 µM in test [2], 94.1 µM with HepG2 and above 200 µM in test [3].
Consider `N#Cc1cc(-n2cc(COc3ccc4ncnc(NCc5ccccc5)c4c3)nn2)ccc1C(F)(F)F`, for which the IC50 at Acetylcholinesterase [1] was above 200 µM.
On Acetylcholinesterase [1], `CN1CCN(c2ncnc3ccc(OCc4cn(-c5ccc(C(F)(F)F)c(C#N)c5)nn4)cc23)CC1` registered an IC50 above 200 µM.
Take `C#CCOc1ccc2ncnc(Nc3cccc([N+](=O)[O-])c3)c2c1`: the IC50 against Acetylcholinesterase [1] was above 200 µM.
`O=[N+]([O-])c1cccc(Nc2ncnc3ccc(OCc4cn(-c5ccccc5[N+](=O)[O-])nn4)cc23)c1`: the IC50 against Acetylcholinesterase [1] is 2.06 µM; in test [2], above 200 µM; in the test on HepG2 it was above 200 µM; in test [3], above 200 µM.
Regarding `Cc1c2ccncc2c(C)c2c1[nH]c1ccccc12` [ELLIPTECINE], the IC50 in test [2] came to 1.1 µM; in the test on HepG2 it was 0.85 µM; in test [3], 1.3 µM.
For `CN1CCN(c2ncnc3ccc(OCc4cn(-c5cccc([N+](=O)[O-])c5)nn4)cc23)CC1`, the IC50 on Acetylcholinesterase [1] is 15.8 µM; in test [2], above 200 µM; in the test with HepG2, above 200 µM; in test [3] it was above 200 µM.
Regarding `N#Cc1cc(-n2cc(COc3ccc4ncnc(Nc5cccc([N+](=O)[O-])c5)c4c3)nn2)ccc1C(F)(F)F`, on Acetylcholinesterase [1], the IC50 is above 200 µM.
`Cc1ccc(Cn2cc(Oc3ccc4cc(C(=O)NC5CCN(Cc6ccccc6)CC5)c(=O)oc4c3)nn2)cc1C` registered an IC50 at Acetylcholinesterase [4] of 1.8 µM.
For the compound `CN1CCN(c2ncnc3ccc(OCc4cn(-c5ccccc5[N+](=O)[O-])nn4)cc23)CC1`, the IC50 against Acetylcholinesterase [1] was 37.4 µM; in test [2], above 200 µM; with HepG2, 142 µM; in test [3], above 200 µM.

(Values after ChEMBL document CHEMBL4665713, “Synthesis and biological evaluation of novel quinazoline-triazole hybrid compounds with potential use in Alzheimer's disease” (Bioorg Med Chem Lett, 2020).)
